Source: paper PMC5515376 (Nature, 2016)

Key:
[1] = system: P. berghei (ANKA GFP-luc) blood-stage parasites; assay: In vivo P. berghei blood-stage assay; set-up: species or system Plasmodium berghei; details: CD-1 mice
[2] = system: P. berghei (ANKA GFP-luc) sporozoites; assay: In vivo P. berghei causal prophylaxis assay; set-up: species or system Plasmodium berghei; details: CD-1 mice
[3] = system: major human cytochrome P450 (CYP) isoforms

COc1ccc(NC(=O)N2CCCCN3[C@H](CN(C)C)[C@H](c4ccc(C#Cc5ccccc5)cc4)[C@@H]3C2)cc1 [BRD7929]
Cure of the infected animals ([1]; single 25 mg kg^−1 oral dose): 100%
Parasite status up to 30-day end-point (bioluminescent imaging) ([1]; single oral 25 mg kg^−1 or 50 mg kg^−1 dose): parasite-free
Animals showing recrudescence at 6 days after treatment ([1]; single oral dose of 12.5 mg kg^−1, n = 4): One in four animals
Lowest single oral dose achieving sterile cure ([1]; P. berghei): 25 mg/kg
Mice developing blood-stage parasitaemia within a 30-day period ([2]; single dose of 5 or 25 mg kg^−1): none
Lowest single oral dose with no recrudescence ([2]; P. berghei liver-stage model): 5 mg/kg
Inhibition of major human CYP isoforms [3]: no inhibition
